Assay results taken from ChEMBL document CHEMBL1201862, “PubChem BioAssay data set” (2004).
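In this assay, cells in 96-well plates receive the compound at five concentrations for 48 hours. Endpoints are linearly interpolated between the surrounding concentrations. GI50 marks 50% less growth.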 Activity calls are given as the source filed them. Cut-off read from the data, not from the text of the source: active = GI50 up to about 1.1 µM and inactive = higher.

How the values were obtained:
Assay in all cases: NCI-60 cell line screen, 48 h
CCRF-CEM = tested on: CCRF-CEM
HCC 2998 = tested on: HCC 2998
SR = tested on: SR
SK-MEL-28 = tested on: SK-MEL-28
MCF7 = tested on: MCF7
MDA-N = tested on: MDA-N
NCI-H522 = tested on: NCI-H522
IGROV-1 = tested on: IGROV-1
KM12 = tested on: KM12
M14 = tested on: M14
COLO 205 = tested on: COLO 205
SK-MEL-2 = tested on: SK-MEL-2
A498 = tested on: A498
SF-268 = tested on: SF-268
SK-OV-3 = tested on: SK-OV-3
SF-295 = tested on: SF-295
BT-549 = tested on: BT-549
RPMI-8226 = tested on: RPMI-8226
SK-MEL-5 = tested on: SK-MEL-5

Measured: GI50

CC(C)(C)C1CCC2c3c([nH]c4ccccc34)C3C(=O)N(c4cccc([N+](=O)[O-])c4)C(=O)C3C2C1 (stereo unspecified)
inactive: CCRF-CEM > 100 µM | HCC 2998 27.7 µM | SR 18.2 µM | SK-MEL-28 21 µM | MCF7 32.5 µM | MDA-N 18.2 µM | NCI-H522 14.6 µM | IGROV-1 19.8 µM | KM12 5.62 µM | M14 37.6 µM | COLO 205 21.2 µM | SK-MEL-2 24.5 µM | A498 41.2 µM | SF-268 21 µM | SK-OV-3 > 100 µM | SF-295 53.7 µM | BT-549 17 µM

CCC(c1ccccc1)c1cc(C(C)(C)C)cc(C(C)(C)C)c1O (stereo unspecified)
inactive: RPMI-8226 13.6 µM | HCC 2998 15.8 µM | SR 31.7 µM | SK-MEL-28 18.3 µM | MCF7 20.1 µM | MDA-N 17.1 µM | NCI-H522 13.7 µM | IGROV-1 17 µM | KM12 18.4 µM | M14 18.6 µM | COLO 205 18.7 µM | SK-MEL-2 15.7 µM | A498 19.7 µM | SF-268 15.3 µM | SK-OV-3 14.9 µM | SK-MEL-5 18.1 µM | SF-295 13.9 µM | BT-549 19.3 µM

CSc1c(C#N)c(=O)n(N)c2c1c(C)nn2-c1ccccc1
inactive: CCRF-CEM 19.4 µM | RPMI-8226 21.9 µM | HCC 2998 18.1 µM | SR 23.6 µM | SK-MEL-28 35.4 µM | MCF7 16.6 µM | MDA-N 35.6 µM | NCI-H522 22.9 µM | KM12 34.2 µM | M14 35.7 µM | COLO 205 17.3 µM | SK-MEL-2 19.3 µM | A498 21.4 µM | SF-268 42 µM | SK-OV-3 26.4 µM | SK-MEL-5 15.3 µM | BT-549 30.1 µM

CC(=O)OC[C@@H]1[C@H]2CC[C@]3(C)[C@@H](OC(C)=O)CC[C@H]3[C@@H]2CC[C@H]1C1(C)SCCS1
inactive: CCRF-CEM > 25 µM | RPMI-8226 > 25 µM | HCC 2998 > 25 µM | SR > 25 µM | SK-MEL-28 > 25 µM | MCF7 > 25 µM | MDA-N > 25 µM | NCI-H522 > 25 µM | IGROV-1 > 25 µM | KM12 > 25 µM | M14 > 25 µM | COLO 205 > 25 µM | A498 > 25 µM | SF-268 > 25 µM | SK-MEL-5 23.2 µM | SF-295 > 25 µM | BT-549 > 25 µM

CCCCCCCCCCCCCCCCC(=O)NCC(=O)NCC(=O)NC(Cc1ccccc1)C(=O)Oc1ccc([N+](=O)[O-])cc1 (stereo unspecified)
inactive: CCRF-CEM 22 µM | RPMI-8226 21 µM | HCC 2998 17.7 µM | SR 25 µM | SK-MEL-28 15.8 µM | MCF7 48.4 µM | MDA-N 48.5 µM | NCI-H522 26.7 µM | IGROV-1 > 100 µM | KM12 22.7 µM | M14 21.4 µM | COLO 205 20.2 µM | SK-MEL-2 48.4 µM | A498 > 100 µM | SF-268 23.3 µM | SK-MEL-5 21.6 µM | SF-295 23 µM | BT-549 16.7 µM

COc1ccc(/N=N/C(=N/NC(=O)c2ccc(C)cc2)c2ccc(N(CCC#N)CCC#N)cc2OC)cc1
inactive: HCC 2998 > 100 µM | SR 36.6 µM | SK-MEL-28 > 100 µM | MCF7 > 100 µM | MDA-N > 100 µM | NCI-H522 > 100 µM | IGROV-1 > 100 µM | KM12 > 100 µM | M14 > 100 µM | COLO 205 > 100 µM | SK-MEL-2 > 100 µM | A498 > 100 µM | SF-268 > 100 µM | SK-OV-3 > 100 µM | SK-MEL-5 > 100 µM | SF-295 > 100 µM | BT-549 > 100 µM

CC(=O)N(C(=O)CC(=O)N/N=C\c1ccc(Br)c(N(CCC#N)CCC#N)c1)c1ccc(Cl)cc1
inactive: CCRF-CEM > 100 µM | RPMI-8226 81.8 µM | HCC 2998 31 µM | SR 44.2 µM | SK-MEL-28 > 100 µM | MCF7 52.7 µM | MDA-N 41.3 µM | IGROV-1 21.4 µM | KM12 14.1 µM | M14 34.5 µM | COLO 205 69.8 µM | A498 33.4 µM | SF-268 > 100 µM | SK-OV-3 49.7 µM | SF-295 22.7 µM | BT-549 58.9 µM

COc1ccc2c(c1)nc1n2C(c2c(F)cccc2F)SC1 (stereo unspecified)
inactive: CCRF-CEM 47.5 µM | RPMI-8226 30.6 µM | HCC 2998 55.1 µM | SR 13.5 µM | SK-MEL-28 > 100 µM | MCF7 38.3 µM | MDA-N 40 µM | IGROV-1 47.5 µM | KM12 25 µM | M14 56.9 µM | COLO 205 40.6 µM | SK-MEL-2 31.6 µM | A498 > 100 µM | SF-268 32.2 µM | SK-OV-3 40.8 µM | SK-MEL-5 24.2 µM | SF-295 32.4 µM | BT-549 59 µM

COc1ccccc1-c1cc(=O)c2ccc(OC)c(OC)c2o1
inactive: CCRF-CEM > 100 µM | RPMI-8226 47.6 µM | HCC 2998 52.8 µM | SR > 100 µM | SK-MEL-28 > 100 µM | MCF7 45.9 µM | MDA-N 48.2 µM | NCI-H522 32.8 µM | IGROV-1 97.1 µM | M14 64.3 µM | COLO 205 49.3 µM | SK-MEL-2 70.6 µM | A498 37.8 µM | SF-268 > 100 µM | SK-OV-3 66.7 µM | SK-MEL-5 27.7 µM | SF-295 40.8 µM | BT-549 76.9 µM

CCCCC/C=C1/CC(CO)(COC(=O)CC(C(C)C)C(C)C)OC1=O (stereo unspecified)
inactive: CCRF-CEM 16 µM | HCC 2998 16.7 µM | SR 16.6 µM | SK-MEL-28 13 µM | MCF7 17.1 µM | MDA-N 3.67 µM | NCI-H522 16.4 µM | IGROV-1 17.8 µM | KM12 16.9 µM | M14 14.1 µM | COLO 205 3.24 µM | SK-MEL-2 13.3 µM | A498 13 µM | SF-268 16.4 µM | SK-OV-3 18.9 µM | SK-MEL-5 9.95 µM | SF-295 5.73 µM | BT-549 14.8 µM

COc1c(O)cc(C(=O)O[C@@H]2Cc3c(O)cc(O)cc3O[C@@H]2c2cc(O)c(O)c(O)c2)cc1O
inactive: RPMI-8226 24.3 µM | HCC 2998 97.1 µM | SR 18.7 µM | SK-MEL-28 > 100 µM | MCF7 20 µM | MDA-N 24.4 µM | NCI-H522 24.4 µM | IGROV-1 46.2 µM | KM12 20.1 µM | M14 59.4 µM | SK-MEL-2 63.2 µM | A498 94.6 µM | SF-268 20.5 µM | SK-OV-3 > 100 µM | SK-MEL-5 26.7 µM | SF-295 20.3 µM | BT-549 25.3 µM
